# Laboratory results reported in patent US9873709B2 (priority 2013, dated 2018).
# Counter-ions that a name gives are not always drawn.
# Target: isolated recombinant JAK2 kinase domain (Homo sapiens (Human), UniProt O60674)
# Assay: not given
# Conditions: read-out: JAK2 Ki
# isolated recombinant JAK2 kinase domain, sequence (O60674 849-1124): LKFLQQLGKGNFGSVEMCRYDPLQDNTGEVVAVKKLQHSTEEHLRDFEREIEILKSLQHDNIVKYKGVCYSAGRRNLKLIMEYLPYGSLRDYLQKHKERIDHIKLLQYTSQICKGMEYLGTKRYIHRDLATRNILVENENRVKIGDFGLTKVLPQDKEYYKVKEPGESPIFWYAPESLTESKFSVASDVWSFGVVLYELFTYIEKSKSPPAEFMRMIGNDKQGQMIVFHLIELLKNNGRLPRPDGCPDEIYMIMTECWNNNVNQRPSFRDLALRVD
row,SMILES,Ki [nM]
1,"CN1CCC(N(C)C(=O)c2ccc(Nc3nc4c(Oc5ccc6oc(=O)n(Cc7ccccc7)c6c5)cccn4n3)cc2)CC1 [Example 1-264, 4-([8-[(3-benzyl-2-oxo-2,3-dihydro-1,3-benzoxazol-5-yl)oxy]-[1,2,4]triazolo[1,5-a]pyridin-2-yl]amino)-N-methyl-N-(1-methylpiperidin-4-yl)benzamide]",121

# Same assay, conditions: read-out: JAK2 Ki; isolated recombinant JAK2 kinase domain, 25 μM ATP
row,Ki [nM],SMILES
1,23.1,"COC1CCN(c2cccn3nc(Nc4ccc(C(=O)N(C)C5CCN(C)CC5)cc4)nc23)CC1 [Example 1-8, 4-[[8-(4-methoxy-1-piperidyl)-[1,2,4]triazolo[1,5-a]pyridin-2-yl]amino]-N-methyl-N-(1-methyl-4-piperidyl)benzamide]"
2,1.41,"O=C(c1ccc(Nc2nc3c(N4CCC(O)(c5ccc(Cl)cc5)CC4)cccn3n2)cc1)N1CCCC1c1ccncc1 (stereo not shown) [Example 1-147, [4-[[8-[4-(4-chlorophenyl)-4-hydroxy-1-piperidyl]-[1,2,4]triazolo[1,5-a]pyridin-2-yl]amino]phenyl]-[2-(4-pyridyl)pyrrolidin-1-yl]methanone]"
3,0.27,"CN1CCC(N(C)C(=O)c2ccc(Nc3nc4c(N5CCC(CC(N)=O)(c6ccccc6)CC5)cccn4n3)cc2)CC1 [Example 1-30, 4-[[8-[4-(2-amino-2-oxo-ethyl)-4-phenyl-1-piperidyl]-[1,2,4]triazolo[1,5-a]pyridin-2-yl]amino]-N-methyl-N-(1-methyl-4-piperidyl)benzamide]"
4,49.1,"CN1CCC(N(C)C(=O)c2ccc(Nc3nc4c(N5CCN6CCOC[C@@H]6C5)cccn4n3)cc2)CC1 [Example 1-25, 4-[[8-[(9aS)-3,4,6,7,9,9a-hexahydro-1H-pyrazino[2,1-c][1,4]oxazin-8-yl]-[1,2,4]triazolo[1,5-a]pyridin-2-yl]amino]-N-methyl-N-(1-methyl-4-piperidyl)benzamide]"
5,10.1,"CN1CCC(N(C)C(=O)c2ccc(Nc3nc4c(N5CCc6ccccc6C5)cccn4n3)cc2)CC1 [Example 1-46, 4-[[8-(3,4-dihydro-1H-isoquinolin-2-yl)-[1,2,4]triazolo[1,5-a]pyridin-2-yl]amino]-N-methyl-N-(1-methyl-4-piperidyl)benzamide]"
6,12.4,"CN1CCC(N(C)C(=O)c2ccc(Nc3nc4c(N5CC=C(c6ccccc6)CC5)cccn4n3)cc2)CC1 [Example 1-4, N-methyl-N-(1-methyl-4-piperidyl)-4-[[8-(4-phenyl-3,6-dihydro-2H-pyridin-1-yl)-[1,2,4]triazolo[1,5-a]pyridin-2-yl]amino]benzamide]"
7,13.2,"CN1CCC(N(C)C(=O)c2ccc(Nc3nc4c(N5CCC(C(=O)O)(c6ccc(Cl)cc6)CC5)cccn4n3)cc2)CC1 [Example 1-269, 4-(4-chlorophenyl)-1-[2-([4-[methyl(1-methylpiperidin-4-yl)carbamoyl]phenyl]amino)-[1,2,4]-triazolo[1,5-a]pyridin-8-yl]piperidine-4-carboxylic acid]"
8,3.52,"Cc1ccc(C2(O)CCN(c3cccn4nc(Nc5ccc(C(=O)N(C)C6CCN(C)CC6)cc5)nc34)CC2)cc1 [Example 1-39, 4-[[8-[4-hydroxy-4-(p-tolyl)-1-piperidyl]-[1,2,4]triazolo[1,5-a]pyridin-2-yl]amino]-N-methyl-N-(1-methyl-4-piperidyl)benzamide]"
9,28.8,"CN1CCC(N(C)C(=O)c2ccc(Nc3nc4c(N5CCN6C(=O)COC[C@@H]6C5)cccn4n3)cc2)CC1 [Example 1-32, 4-[[8-[(9aS)-4-oxo-6,7,9,9a-tetrahydro-1H-pyrazino[2,1-c][1,4]oxazin-8-yl]-[1,2,4]triazolo[1,5-a]pyridin-2-yl]amino]-N-methyl-N-(1-methyl-4-piperidyl)benzamide]"
10,4.58,"COc1ccc(C2(O)CCN(c3cccn4nc(Nc5ccc(C(=O)N(C)C6CCN(C)CC6)cc5)nc34)CC2)cc1 [Example 1-40, 4-[[8-[4-hydroxy-4-(4-methoxyphenyl)-1-piperidyl]-[1,2,4]triazolo[1,5-a]pyridin-2-yl]amino]-N-methyl-N-(1-methyl-4-piperidyl)benzamide]"
11,0.85,"CN1CCC(N(C)C(=O)c2ccc(Nc3nc4c(N5CCC(C)(c6ccccc6)CC5)cccn4n3)cc2)CC1 [Example 1-1, N-methyl-4-(8-(4-methyl-4-phenylpiperidin-1-yl)-[1,2,4]triazolo[1,5-a]pyridin-2-ylamino)-N-(1-methylpiperidin-4-yl)benzamide]"
12,27.7,"CN1CCC(N(C)C(=O)c2ccc(Nc3nc4c(N5CCC(O)(c6ccccc6Cl)CC5)cccn4n3)cc2)CC1 [Example 1-35, 4-[[8-[4-(2-chlorophenyl)-4-hydroxy-1-piperidyl]-[1,2,4]triazolo[1,5-a]pyridin-2-yl]amino]-N-methyl-N-(1-methyl-4-piperidyl)benzamide]"
13,17.2,"CN1CCC(N(C)C(=O)c2ccc(Nc3nc4c(N5CCC6(CC5)CNC(=O)C6)cccn4n3)cc2)CC1 [Example 1-27, N-methyl-N-(1-methyl-4-piperidyl)-4-[[8-(3-oxo-2,8-diazaspiro[4.5]decan-8-yl)-[1,2,4]triazolo[1,5-a]pyridin-2-yl]amino]benzamide]"
14,32.1,"CN1CCC(N(C)C(=O)c2ccc(Nc3nc4c(N5CCC(O)(c6cccc(C#N)c6)CC5)cccn4n3)cc2)CC1 [Example 1-22, 4-[[8-[4-(3-cyanophenyl)-4-hydroxy-1-piperidyl]-[1,2,4]triazolo[1,5-a]pyridin-2-yl]amino]-N-methyl-N-(1-methyl-4-piperidyl)benzamide]"
15,8.21,"CN1CCC(N(C)C(=O)c2ccc(Nc3nc4c(N5CCC6(CC5)CNC(=O)O6)cccn4n3)cc2)CC1 [Example 1-28, N-methyl-N-(1-methyl-4-piperidyl)-4-[[8-(2-oxo-1-oxa-3,8-diazaspiro[4.5]decan-8-yl)-[1,2,4]triazolo[1,5-a]pyridin-2-yl]amino]benzamide]"
16,145,"NCC1(c2ccccc2)CCN(c2cccn3nc(NC(=O)C4CC4)nc23)CC1 [Example 3-1, N-[8-[4-(aminomethyl)-4-phenyl-1-piperidyl]-[1,2,4]triazolo[1,5-a]pyridin-2-yl]cyclopropane carboxamide; hydrochloride]"
17,12.2,"CN1CCC(N(C)C(=O)c2ccc(Nc3nc4c(N5CC=C(c6ccccc6)CCC5)cccn4n3)cc2)CC1 [Example 1-15, N-methyl-N-(1-methyl-4-piperidyl)-4-[[8-(5-phenyl-2,3,4,7-tetrahydroazepin-1-yl)-[1,2,4]triazolo[1,5-a]pyridin-2-yl]amino]benzamide]"
18,39.9,"CN1CCC(N(C)C(=O)c2ccc(Nc3nc4c(N5CCC(C)(O)CC5)cccn4n3)cc2)CC1 [Example 1-6, 4-[[8-(4-hydroxy-4-methyl-1-piperidyl)-[1,2,4]triazolo[1,5-a]pyridin-2-yl]amino]-N-methyl-N-(1-methyl-4-piperidyl)benzamide; hydrochloride]"
19,6.51,"CN1CCC(N(C)C(=O)c2ccc(Nc3nc4c(N5CCCC(O)(c6ccccc6)CC5)cccn4n3)cc2)CC1 (stereo not shown) [Example 1-7, 4-[[8-(4-hydroxy-4-phenyl-azepan-1-yl)-[1,2,4]triazolo[1,5-a]pyridin-2-yl]amino]-N-methyl-N-(1-methyl-4-piperidyl)benzamide]"
20,20.4,"CN1CCC(N(C)C(=O)c2ccc(Nc3nc4c(N5CCC(C#N)(c6ccccc6)CC5)cccn4n3)cc2)CC1 [Example 1-45, 4-[[8-(4-cyano-4-phenyl-1-piperidyl)-[1,2,4]triazolo[1,5-a]pyridin-2-yl]amino]-N-methyl-N-(1-methyl-4-piperidyl)benzamide]"
21,14.2,"CN1CCC(N(C)C(=O)c2ccc(Nc3nc4c(N5CCC(O)(C6CCCCC6)CC5)cccn4n3)cc2)CC1 [Example 1-2, 4-[[8-(4-cyclohexyl-4-hydroxy-1-piperidyl)-[1,2,4]triazolo[1,5-a]pyridin-2-yl]amino]-N-methyl-N-(1-methyl-4-piperidyl)benzamide]"
22,52.4,"CN1CCC(N(C)C(=O)c2ccc(Nc3nc4c(N5CCN6C(=O)NCCC6C5)cccn4n3)cc2)CC1 (stereo not shown) [Example 1-31, N-methyl-N-(1-methyl-4-piperidyl)-4-[[8-(6-oxo-3,4,7,8,9,9a-hexahydro-1H-pyrazino[1,2-c]pyrimidin-2-yl)-[1,2,4]triazolo[1,5-a]pyridin-2-yl]amino]benzamide]"
23,2.54,"CN1CCC(N(C)C(=O)c2ccc(Nc3nc4c(N5CCC(CO)(CNCC(F)(F)F)CC5)cccn4n3)cc2)CC1 [Example 1-266, 4-([8-[4-(hydroxymethyl)-4-[[(2,2,2-trifluoroethyl)amino]methyl]piperidin-1-yl]-[1,2,4]triazolo[1,5-a]pyridin-2-yl]amino)-N-methyl-N-(1-methylpiperidin-4-yl)benzamide]"
24,4.98,"CN1CCC(N(C)C(=O)c2ccc(Nc3nc4c(N5CCC(C)(NS(=O)(=O)c6ccccc6)CC5)cccn4n3)cc2)CC1 [Example 1-303, 4-[[8-[4-(benzenesulfonamido)-4-methyl-1-piperidyl]-[1,2,4]triazolo[1,5-a]pyridin-2-yl]amino]-N-methyl-N-(1-methyl-4-piperidyl)benzamide]"
25,7.53,"CN1CCC(N(C)C(=O)c2ccc(Nc3nc4c(N5CCC=C(c6ccccc6)CC5)cccn4n3)cc2)CC1 [Example 1-14, N-methyl-N-(1-methyl-4-piperidyl)-4-[[8-(4-phenyl-2,3,6,7-tetrahydroazepin-1-yl)-[1,2,4]triazolo[1,5-a]pyridin-2-yl]amino]benzamide]"
26,3.8,"O=C(c1ccc(Nc2nc3c(N4CCC(O)(c5ccc(Cl)cc5)CC4)cccn3n2)cc1)N1CCN(c2ccccn2)CC1 [Example 1-112, [4-[[8-[4-(4-chlorophenyl)-4-hydroxy-1-piperidyl]-[1,2,4]triazolo[1,5-a]pyridin-2-yl]amino]phenyl]-[4-(2-pyridyl)piperazin-1-yl]methanone]"

row,SMILES,Ki [nM]
1,"CC(=O)NC1(C)CCN(c2cccn3nc(Nc4ccc(C(=O)N(C)C5CCN(C)CC5)cc4)nc23)CC1 [Example 1-260, 4-[[8-(4-acetamido-4-methylpiperidin-1-yl)-[1,2,4]-triazolo[1,5-a]pyridin-2-yl]amino]-N-methyl-N-(1-methylpiperidin-4-yl)benzamide]",16.3

# System: JAK1-dependent STAT6 phosphorylation downstream of IL-13 stimulation in TF-1 human erythroleukemia cells
# Assay: cells
# Conditions: TF-1, read-out: IL-13-pSTAT6 IC50
row,IC50 [nM],SMILES
1,756,"COC1CCN(c2cccn3nc(Nc4ccc(C(=O)N(C)C5CCN(C)CC5)cc4)nc23)CC1 [Example 1-8, 4-[[8-(4-methoxy-1-piperidyl)-[1,2,4]triazolo[1,5-a]pyridin-2-yl]amino]-N-methyl-N-(1-methyl-4-piperidyl)benzamide]"
2,66.5,"O=C(c1ccc(Nc2nc3c(N4CCC(O)(c5ccc(Cl)cc5)CC4)cccn3n2)cc1)N1CCCC1c1ccncc1 (stereo not shown) [Example 1-147, [4-[[8-[4-(4-chlorophenyl)-4-hydroxy-1-piperidyl]-[1,2,4]triazolo[1,5-a]pyridin-2-yl]amino]phenyl]-[2-(4-pyridyl)pyrrolidin-1-yl]methanone]"
3,252,"CN1CCC(N(C)C(=O)c2ccc(Nc3nc4c(N5CCC(CC(N)=O)(c6ccccc6)CC5)cccn4n3)cc2)CC1 [Example 1-30, 4-[[8-[4-(2-amino-2-oxo-ethyl)-4-phenyl-1-piperidyl]-[1,2,4]triazolo[1,5-a]pyridin-2-yl]amino]-N-methyl-N-(1-methyl-4-piperidyl)benzamide]"
